Data from patent publication US20250179000A1 (Sanford Burnham Prebys Medical Discovery Institute, priority 2021, published 2025).

Tests used:
Rat mGlu2 = target: T1, Rat mGlu2 (Rattus norvegicus, UniProt P31421); test: mGlu receptor in vitro assay, thallium flux through GIRK channels, rat mGlu2; type: cell-based; settings: PAM potency with EC20 glutamate
T1 construct: expressed in transfected cells; host or cells: HEK-293 co-expressing GIRK channels
Procedure: (§1) Human Embryonic Kidney (HEK-293) cell lines co-expressing rat mGlu receptors 2, 3, 4, 6, 7 or 8 and G protein-coupled inwardly-rectifying potassium (GIRK) channels were grown in Growth Media containing 45% DMEM, 45% F-12, 10% FBS, 20 mM HEPES, 2 mM L-glutamine, antibiotic/antimycotic, non-essential amino acids, 700 μg/mL G418, and 0.6 μg/ml puromycin at 37° C. in the presence of 5% CO2. […] All cell culture reagents were purchased from Invitrogen Corp. (Carlsbad, CA) unless otherwise noted. Calcium assays were used to assess activity of compounds at mGlu1 and mGlu5, as previously described in Engers et al (J. Med. Chem. 2009, 52, 4115-4118). Calcium assays at mGlu3 were performed as described for mGlu5 with the exception that TREx293 mGlu3 Gα15 cells were treated with tetracycline at 20 ng/mL for 20 h prior to assay.
(§2) Compound activity at the group II (mGlu2 and mGlu3) and group III (mGlu4, mGlu6, mGlu7, and mGlu8) was assessed using thallium flux through GIRK channels, a method that has been described in detail. Briefly, cells were plated into 384-well, black-walled, clear-bottomed poly-D-lysine-coated plates at a density of 15,000 cells/20 μL/well in DMEM containing 10% dialyzed FBS, 20 mM HEPES, and 100 units/mL penicillin/streptomycin (assay media). Plated cells were incubated overnight at 37° C. in the presence of 5% CO2. The following day, the medium was exchanged from the cells to assay buffer [Hanks' balanced salt solution (Invitrogen) containing 20 mM HEPES, pH 7.3] using an ELX405 microplate washer (BioTek), leaving 20 μL/well, followed by the addition of 20 μL/well FluoZin2-AM (330 nM final concentration) indicator dye (Invitrogen; prepared as a stock in DMSO and mixed in a 1:1 ratio with Pluronic acid F-127) in assay buffer. Cells were incubated for 1 h at room temperature, and the dye exchanged to assay buffer using an ELX405, leaving 20 μL/well. Test compounds were diluted to 2 times their final desired concentration in assay buffer (0.3% DMSO final concentration). Agonists were diluted in thallium buffer [125 mM sodium bicarbonate (added fresh the morning of the experiment), 1 mM magnesium sulfate, 1.8 mM calcium sulfate, 5 mM glucose, 12 mM thallium sulfate, and 10 mM HEPES, pH 7.3] at 5 times the final concentration to be assayed. Cell plates and compound plates were loaded onto a kinetic imaging plate reader (FDSS 6000 or 7000; Hamamatsu Corporation, Bridgewater, NJ). Appropriate baseline readings were taken (10 images at 1 Hz; excitation, 470±20 nm; emission, 540±30 nm) and test compounds were added in a 20 μL volume and incubated for approximately 2.5 min before the addition of 10 μL of thallium buffer with or without agonist. After the addition of agonist, data were collected for approximately an additional 2.5 min. Data were analyzed using Excel (Microsoft Corp, Redmond, WA). The slope of the fluorescence increase beginning 5 s after thallium/agonist addition and ending 15 s after thallium/agonist addition was calculated, corrected to vehicle and maximal agonist control slope values, and plotted in using either XLfit (ID Business Solutions Ltd) or Prism software (GraphPad Software, San Diego, CA) to generate concentration-response curves. Potencies were calculated from fits using a four-point parameter logistic equation. For concentration-response curve experiments, compounds were serially diluted 1:3 into 10-point concentration response curves and were transferred to daughter plates using an Echo acoustic plate reformatter (Labcyte, Sunnyvale, CA). Test compounds were applied and followed by EC20 concentrations of glutamate.

Rat mGlu3 = target: T2, Rat mGlu3 (Rattus norvegicus, UniProt P31422); test: mGlu receptor in vitro assay (thallium flux through GIRK channels / calcium assay), rat mGlu3; type: cell-based; settings: PAM potency with EC20 glutamate
T2 construct: expressed in transfected cells; host or cells: HEK-293 co-expressing GIRK channels
Procedure: as §1, §2

T1 sequence (P31421 19-872): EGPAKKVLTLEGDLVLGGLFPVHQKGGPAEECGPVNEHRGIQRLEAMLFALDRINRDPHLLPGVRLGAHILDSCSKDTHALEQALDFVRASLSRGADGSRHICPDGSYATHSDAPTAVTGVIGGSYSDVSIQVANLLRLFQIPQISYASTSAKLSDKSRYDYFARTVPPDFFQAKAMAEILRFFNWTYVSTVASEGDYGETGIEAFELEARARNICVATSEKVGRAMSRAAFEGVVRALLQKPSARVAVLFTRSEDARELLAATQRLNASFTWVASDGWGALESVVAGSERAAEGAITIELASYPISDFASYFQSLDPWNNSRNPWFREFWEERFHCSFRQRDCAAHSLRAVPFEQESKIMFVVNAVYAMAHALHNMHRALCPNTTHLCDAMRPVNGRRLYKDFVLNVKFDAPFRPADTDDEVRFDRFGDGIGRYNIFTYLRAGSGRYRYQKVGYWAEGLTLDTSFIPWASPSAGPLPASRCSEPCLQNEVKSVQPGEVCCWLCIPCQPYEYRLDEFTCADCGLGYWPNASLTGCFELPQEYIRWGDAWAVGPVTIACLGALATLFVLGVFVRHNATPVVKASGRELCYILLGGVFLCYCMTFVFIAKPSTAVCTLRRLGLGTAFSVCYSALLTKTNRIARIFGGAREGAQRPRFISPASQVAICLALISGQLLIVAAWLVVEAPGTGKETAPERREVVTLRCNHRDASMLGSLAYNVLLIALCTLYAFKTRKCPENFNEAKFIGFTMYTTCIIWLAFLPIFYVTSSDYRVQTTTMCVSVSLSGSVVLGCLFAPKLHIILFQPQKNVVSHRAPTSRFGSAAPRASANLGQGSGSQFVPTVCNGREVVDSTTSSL
T2 sequence (P31422 23-879): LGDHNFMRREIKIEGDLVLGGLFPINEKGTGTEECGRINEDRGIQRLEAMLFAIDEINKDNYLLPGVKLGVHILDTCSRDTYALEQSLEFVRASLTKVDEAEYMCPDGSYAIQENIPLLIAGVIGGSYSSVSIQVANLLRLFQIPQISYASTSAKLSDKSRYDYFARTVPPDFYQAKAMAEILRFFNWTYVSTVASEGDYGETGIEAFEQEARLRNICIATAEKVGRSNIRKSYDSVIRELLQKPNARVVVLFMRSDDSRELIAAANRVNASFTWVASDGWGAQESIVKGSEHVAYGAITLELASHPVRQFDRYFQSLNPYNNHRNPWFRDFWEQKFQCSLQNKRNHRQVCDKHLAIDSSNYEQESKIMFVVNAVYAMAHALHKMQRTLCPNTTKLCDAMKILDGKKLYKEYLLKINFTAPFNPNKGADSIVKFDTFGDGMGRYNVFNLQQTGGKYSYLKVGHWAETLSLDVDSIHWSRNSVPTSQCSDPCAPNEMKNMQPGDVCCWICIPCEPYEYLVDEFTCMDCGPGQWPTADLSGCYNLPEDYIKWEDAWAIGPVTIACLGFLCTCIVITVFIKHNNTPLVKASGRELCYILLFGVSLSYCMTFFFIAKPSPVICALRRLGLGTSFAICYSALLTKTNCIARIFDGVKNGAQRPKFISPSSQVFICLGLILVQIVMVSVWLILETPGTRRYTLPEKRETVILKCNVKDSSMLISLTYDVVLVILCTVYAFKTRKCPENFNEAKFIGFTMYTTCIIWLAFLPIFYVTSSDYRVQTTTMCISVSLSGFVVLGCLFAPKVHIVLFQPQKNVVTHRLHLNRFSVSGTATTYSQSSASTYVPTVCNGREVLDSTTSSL

SMILES | EC50 (Rat mGlu2) [nM] | EC50 (Rat mGlu3) [nM]
CCCC(=O)c1ccc(OCc2cnc(-c3ccc(C(=O)O)c(Cl)c3)cn2)c(C)c1O [compound 107, 4-{5-[(4-Butanoyl-3-hydroxy-2-methylphenoxy)methyl]pyrazin-2-yl}-2-chlorobenzoic acid] | 254 | 2140
COc1ccc(C(=O)O)cc1OCCCCOc1ccc(C(O)CC(C)(C)C)c(O)c1C (centres unmarked) [compound 96, 3-{4-[3-Hydroxy-4-(1-hydroxy-3,3-dimethylbutyl)-2-methylphenoxy]butoxy}-4-methoxybenzoic acid] | 1640 | > 10000
Cc1c(OC/C=C/COc2ccc(C(=O)CC(C)(C)C)c(O)c2C)cccc1C(=O)O [Example 21, 3-{(2E)-4-[4-(3,3-Dimethylbutanoyl)-3-hydroxy-2-methylphenoxy]but-2-enyloxy}-2-methylbenzoic acid] | 38 | 73
CCCC(=O)c1ccc(OC/C=C/COc2ccc(C(=O)O)cc2OC)c(C)c1O [Example 6, (E)-4-((4-(4-Butyryl-3-hydroxy-2-methylphenoxy)but-2-en-1-yl)oxy)-3-methoxybenzoic acid] | 4 | 2590
CCCC(=O)c1ccc(OCOc2cccc(C(=O)O)c2C)c(C)c1O [compound 95, 3-[(4-Butanoyl-3-hydroxy-2-methylphenoxy)methoxy]-2-methylbenzoic acid] | 663 | > 30000
Cc1nc(-c2cccc(-c3cnc(COc4ccc(C(=O)CC(C)(C)C)c(O)c4C)cn3)c2)no1 [compound 86, 1-(2-Hydroxy-3-methyl-4-((5-(3-(5-methyl-1,2,4-oxadiazol-3-yl)phenyl)pyrazin-2-yl)methoxy)phenyl)-3,3-dimethylbutan-1-one] | > 30000 | > 10000
Cc1c(OCc2cccc(-c3cccc(S(N)(=O)=O)c3)c2)ccc(C(=O)CC(C)(C)C)c1O [Example 163, 3′-((4-(3,3-Dimethylbutanoyl)-3-hydroxy-2-methylphenoxy)methyl)-[1,1′-biphenyl]-3-sulfonamide] | 1360 | > 30000
CCCC(=O)c1ccc(OCC#CCOc2ccc(C(=O)O)c(Cl)c2)c(C)c1O [Example 43, 4-[4-(4-Butanoyl-3-hydroxy-2-methylphenoxy)but-2-ynyloxy]-2-chlorobenzoic acid] | 33 | > 10000
COc1ccc(C(=O)O)cc1OCCOc1ccc(C(=O)CC(C)(C)C)c(O)c1C [compound 93, 3-{2-[4-(3,3-Dimethylbutanoyl)-3-hydroxy-2-methylphenoxy]ethoxy}-4-methoxybenzoic acid] | 207 | 1220
Cc1c(OCCCCCOc2ccc(F)c(C(=O)O)c2)ccc(C(=O)CC(C)C)c1O [Example 47, 2-Fluoro-5-{5-[3-hydroxy-2-methyl-4-(3-methylbutanoyl)phenoxy]pentyloxy}benzoic acid] | 113 | 2040
Cc1c(OCc2cnc(-c3cccc(C(=O)NC4CC4)c3)cn2)ccc(C(=O)CC(C)(C)C)c1O [compound 113, N-Cyclopropyl-3-(5-((4-(3,3-dimethylbutanoyl)-3-hydroxy-2-methylphenoxy)methyl)pyrazin-2-yl)benzamide] | 1270 | 333
CCCC(=O)c1ccc(OCC(=O)c2cccc(-c3cccc(C(=O)O)c3C)c2)c(C)c1O [compound 99, 3-{3-[2-(4-Butanoyl-3-hydroxy-2-methylphenoxy)acetyl]phenyl}-2-methylbenzoic acid] | 167 | > 30000
Cc1c(OCc2cnc(-c3ccc(C(=O)O)c(Cl)c3)cn2)ccc(C(=O)CC(C)(C)C)c1O [compound 106, 4-(5-{[4-(3,3-Dimethylbutanoyl)-3-hydroxy-2-methylphenoxy]methyl}pyrazin-2-yl)-2-chlorobenzoic acid] | 535 | 523
Cc1c(OCc2cnc(-c3cccc(-c4noc(=S)[nH]4)c3)cn2)ccc(C(=O)CC(C)(C)C)c1O [compound 123, 1-(2-Hydroxy-3-methyl-4-((5-(3-(5-thioxo-4,5-dihydro-1,2,4-oxadiazol-3-yl)phenyl)pyrazin-2-yl)methoxy)phenyl)-3,3-dimethylbutan-1-one] | 2520 | 2640
COc1ccc(C(=O)O)cc1OCCOCCOc1ccc(C(=O)CC(C)(C)C)c(O)c1C [Example 1, 3-(2-(2-(4-(3,3-Dimethylbutanoyl)-3-hydroxy-2-methylphenoxy)ethoxy)ethoxy)-4-methoxybenzoic acid] | 18 | 52
CCCC(=O)c1ccc(OCCS(=O)(=O)CCOc2ccc(C(=O)O)c(Cl)c2)c(C)c1O [Example 37, 4-(2-{[2-(4-Butanoyl-3-hydroxy-2-methylphenoxy)ethyl]sulfonyl}ethoxy)-2-chlorobenzoic acid] | > 10000 | > 30000
Cc1c(OCc2cnc(-c3cccc(C(=O)O)c3)cn2)ccc(C(=O)c2ccccc2)c1O [compound 67, 3-(5-((4-Benzoyl-3-hydroxy-2-methylphenoxy)methyl)pyrazin-2-yl)benzoic acid] | 1800 | 625
Cc1c(OCc2cncc(-c3cccc(C(=O)O)c3)n2)ccc(C(=O)CC(C)(C)C)c1O [compound 112, 3-(6-((4-(3,3-Dimethylbutanoyl)-3-hydroxy-2-methylphenoxy)methyl)pyrazin-2-yl)benzoic acid] | 217 | 281
CCCC(=O)c1ccc(OCC[S+]([O-])CCOc2cccc(C(=O)O)c2C)c(C)c1O (centres unmarked) [Example 39, 3-(2-{[2-(4-Butanoyl-3-hydroxy-2-methylphenoxy)ethyl]sulfinyl}ethoxy)-2-methylbenzoic acid] | > 10000 | > 30000
COc1ccc(C(=O)O)cc1OCCCOc1ccc(C(=O)CC(C)(C)C)c(O)c1C [compound 92, 3-{3-[4-(3,3-Dimethylbutanoyl)-3-hydroxy-2-methylphenoxy]propoxy}-4-methoxybenzoic acid] | 57 | 234
CCCC(=O)c1ccc(OCCCCCOc2ccc(C(=O)CCC)c(O)c2C)c(C)c1O [compound 111, 1-{4-[5-(4-Butanoyl-3-hydroxy-2-methylphenoxy)pentyloxy]-2-hydroxy-3-methylphenyl}butan-1-one] | > 10000 | > 30000
CCCC(=O)c1ccc(OCCCCCOc2cnc(C)c(C(=O)O)c2)c(C)c1O [compound 108, 5-[5-(4-Butanoyl-3-hydroxy-2-methylphenoxy)pentyloxy]-2-methylpyridine-3-carboxylic acid] | 110 | > 30000
Cc1c(OCc2cnc(-c3cccc(NC(=O)NS(C)(=O)=O)c3)cn2)ccc(C(=O)CC(C)(C)C)c1O [compound 89, N-((3-(5-((4-(3,3-Dimethylbutanoyl)-3-hydroxy-2-methylphenoxy)methyl)pyrazin-2-yl)phenyl)carbamoyl)methanesulfonamide] | 2380 | 4670
CCCC(=O)c1ccc(OCCSCCOc2ccc(C(=O)O)cc2OC)c(C)c1O [Example 15, 4-{2-[2-(4-Butanoyl-3-hydroxy-2-methylphenoxy)ethylthio]ethoxy}-3-methoxybenzoic acid] | 18 | > 30000
Cc1c(OCc2cnc(-c3cccc(C(=O)NS(C)(=O)=O)c3)cn2)ccc(C(=O)CC(C)(C)C)c1O [compound 126, 3-(5-((4-(3,3-Dimethylbutanoyl)-3-hydroxy-2-methylphenoxy)methyl)pyrazin-2-yl)-N-(methylsulfonyl)benzamide] | > 10000 | 2140
